Measured values taken from US20250197864A1, “LNCRNA TRANSCRIPTS IN MELANOMAGENESIS” (The Regents of the University of California, priority 2021, published 2025).

How the values were obtained:
[1] = system: Sk-Mel-2 melanoma cell line; assay: Cell viability assay (ATP quantitation); format: cell-based, human; conditions: 50 nM, 5 days (120 hrs), vs non-targeting control
Summary of the method: (§1)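 Cells (0.7-2×10^^3 per well, by doubling time) were transfected one day after seeding with esiRNA, siRNA or ASO GapmeRs at 50 nM final unless stated, using Lipofectamine 3000, with or without MEKi. Total luminescence was read 3 days (synergy) or 5 days (ASO alone) after transfection.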

[2] = system: D04 melanoma cell line; assay: Cell viability assay (ATP quantitation); format: cell-based, human; conditions: 50 nM, 5 days (120 hrs), vs non-targeting control
Summary of the method: as §1

[3] = system: Hs852.T primary melanoma cell line; assay: Cell viability assay (ATP quantitation); format: cell-based, human; conditions: 50 nM, 5 days (120 hrs), vs non-targeting control
Summary of the method: as §1

[4] = system: WM3629 melanoma cell line; assay: Cell viability assay (ATP quantitation); format: cell-based, human; conditions: 50 nM, 5 days (120 hrs), vs non-targeting control
Summary of the method: as §1

[5] = system: VMM39 melanoma cell line; assay: Cell viability assay (ATP quantitation); format: cell-based, human; conditions: 50 nM, 5 days (120 hrs), vs non-targeting control
Summary of the method: as §1

[6] = system: WM1366 melanoma cell line; assay: Cell viability assay (ATP quantitation); format: cell-based, human; conditions: 50 nM, 5 days (120 hrs), vs non-targeting control
Summary of the method: as §1

[7] = system: AV5 primary melanoma cell line; assay: Cell viability assay (ATP quantitation); format: cell-based, human; conditions: 50 nM, 5 days (120 hrs), vs non-targeting control
Summary of the method: as §1

[8] = system: WM3211 melanoma cell line; assay: Cell viability assay (ATP quantitation); format: cell-based, human; conditions: 50 nM, 5 days (120 hrs), vs non-targeting control
Summary of the method: as §1

[9] = system: Sk-Mel-28 melanoma cell line; assay: Cell viability assay (ATP quantitation); format: cell-based, human; conditions: 50 nM, 5 days (120 hrs), vs non-targeting control
Summary of the method: as §1

[10] = system: MM415 melanoma cell line; assay: Cell viability assay (ATP quantitation); format: cell-based, human; conditions: 50 nM, 5 days (120 hrs), vs non-targeting control
Summary of the method: as §1

[11] = system: hepatocellular carcinoma cell line HepG2; assay: Cell viability assay (ATP quantitation); format: cell-based; conditions: 50 nM, 120 hrs, Lipofectamine3000 2 ul/ml, vs non-targeting control ASO
Description: (§2) EsiRNA, siRNA and ASO GapmeRs were transfected in a final concentration of 50 nM unless mentioned otherwise and the transfection reagent Lipofectamine 3000 (2 ul/ml) was added according to the manufacturer's instructions.
(§3) Dependent on cell doubling time, 0.7-2×10^^3 cells were seeded in 96 well plates. 1 day after seeding cells were incubated in media with oligonucleotide concentration and/or MEKi and transfection reagent. 3 (synergy experiments) or 5 (solely ASO) days after transfection Total luminescence was measured on the SynergyHT plate reader (BioTek) using Gen5 software.
(§4) Cell viability was compared to treatment with non-targeting control ASO-treatment. Lipofectamine3000 concentration was 2 ul/ml.

[12] = system: sarcoma cell line SK-LMS-1; assay: Cell viability assay (ATP quantitation); format: cell-based; conditions: SK-LMS-1 sarcoma; 50 nM, 120 hrs; Lipofectamine3000 2 ul/ml; vs non-targeting control ASO
Description: as §2, §3, §4

[13] = system: D04 xenograft tumors; assay: Intravenous in vivo treatment, D04 xenograft; conditions: D04 tumors in mice; 700 μg twice a week, intravenous tail vein, no transfection reagent; vs non-targeting control ASO
Description: (§5) In 4- to 6-week-old NOD.Cg-Prkdcscid Il2rgtm1Wjl/SzJ mice, D04 cells in 150 1 of PBS and 50 1 of Matrigel were subcutaneously injected on the right and left posterior dorsal flank of 4- to 6-week-old homozygous nude Foxn1nu/Foxn1nu mice (Stock.no 007850). Mice were obtained from JAX®. Tumor size was measured using a digital caliper and the formula 0.5×(length×(width^2)) was used to calculate tumor volume. Mice were treated twice a week with 700 μg of (SEQ ID NO: 16) or non-targeting control-ASO. No transfection reagent was co-applied. ASO injections were applied intravenously as tail vein injections. Mice were weighted twice a week and observed for signs of distress or disorder.

[14] = system: D04 xenograft tumors; assay: Intratumoral in vivo treatment, D04 xenograft; conditions: D04 tumors in mice; 400 μg twice a week into the tumor mass, no transfection reagent; vs non-targeting control ASO
Description: as §5, with “Il2rgtm1Wjl/SzJ mice D04,” for “Il2rgtm1Wjl/SzJ mice, D04”, “and 501” for “and 50 1”, “right” for “right and left”, “with 400” for “with 700”, “applied into the tumor mass.” for “applied intravenously as tail vein injections.”

“TGCGCGGCGGAAAGAA (QIAGEN GapmeR, modification pattern not given here) [SEQ ID NO: 16, ASO targeting AC004540.4 (TRASH), intronic region of Isoform 2; used in vivo]” was tested, and the cell viability decrease [1] was “significant cell viability decrease”, the cell viability decrease [2] was “significant cell viability decrease” and the cell viability decrease [3] was “significant cell viability decrease”. The cell viability decrease [4] was “significant cell viability decrease”, the cell viability decrease [5] was “significant cell viability decrease” and the cell viability decrease [6] was “significant cell viability decrease”. The cell viability decrease [7] was “significant cell viability decrease”, the cell viability decrease [8] was “significant cell viability decrease” and the cell viability decrease [9] was “significant cell viability decrease”. For the same sequence, the cell viability decrease [10] was “significant cell viability decrease”, the cell viability decrease [11] was “significant cell viability decrease” and the cell viability decrease [12] was “significant cell viability decrease”. The tumor growth [13] was “significantly reduced tumor growth” and the tumor growth [14] was “significantly reduced tumor growth”.
